PubChem BioAssay AID248 (DTP/NCI, 2004)
Inconclusive results and toxic doses are left out. No stated cut-off is given here; in the data, active means T/C of 150% or more; inactive means T/C below 125%.

Tested on: L1210 leukemia ip in BDF1 mice, survival T/C
Experiment: NCI In Vivo Anticancer Drug Screen. Data for tumor model L1210 Leukemia (intraperitoneal) in B6D2F1 (BDF1) mice
Settings: endpoint: mean survival time, higher = longer survival
Method in brief: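 Each compound was tested against a transplantable tumor grown in mice. The endpoint was survival, with treated animals benchmarked against vehicle controls as a simple ratio.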

[1] = dose: 50.0 mg/kg/injection, schedule: Q01DX009 (ip), vehicle: saline with Tween-80
[2] = dose: 100.0 mg/kg/injection, schedule: Q01DX009 (ip), vehicle: saline with Tween-80
[3] = dose: 200.0 mg/kg/injection, schedule: Q01DX009 (ip), vehicle: saline with Tween-80
[4] = dose: 100.0 mg/kg/injection, schedule: Q01DX009 (ip), vehicle: Klucel (hydroxypropylcellulose) (HPC)
[5] = dose: 100.0 mg/kg/injection, schedule: Q04DX003 (ip), vehicle: saline
[6] = dose: 200.0 mg/kg/injection, schedule: Q01DX009 (ip), vehicle: Klucel (hydroxypropylcellulose) (HPC)
[7] = dose: 200.0 mg/kg/injection, schedule: Q04DX003 (ip), vehicle: saline
[8] = dose: 400.0 mg/kg/injection, schedule: Q04DX003 (ip), vehicle: saline
[9] = dose: 100.0 mg/kg/injection, schedule: Q04DX002 (ip), vehicle: Klucel (hydroxypropylcellulose) (HPC)
[10] = dose: 200.0 mg/kg/injection, schedule: Q04DX002 (ip), vehicle: Klucel (hydroxypropylcellulose) (HPC)
[11] = dose: 400.0 mg/kg/injection, schedule: Q04DX002 (ip), vehicle: Klucel (hydroxypropylcellulose) (HPC)
[12] = dose: 400.0 mg/kg/injection, schedule: Q01DX009 (ip), vehicle: Klucel (hydroxypropylcellulose) (HPC)
[13] = dose: 100.0 mg/kg/injection, schedule: Q04DX003 (ip), vehicle: saline with Tween-80
[14] = dose: 200.0 mg/kg/injection, schedule: Q04DX003 (ip), vehicle: saline with Tween-80
[15] = dose: 400.0 mg/kg/injection, schedule: Q04DX003 (ip), vehicle: saline with Tween-80
[16] = dose: 100.0 mg/kg/injection, schedule: Q04DX003 (ip), vehicle: Klucel (hydroxypropylcellulose) (HPC)
[17] = dose: 200.0 mg/kg/injection, schedule: Q04DX003 (ip), vehicle: Klucel (hydroxypropylcellulose) (HPC)

Measured: T/C

CCOC(=O)C(CC(C)C)NC(=O)CCCCSc1ncnc2nc[nH]c12 (stereo unspecified)
inactive: dose: 25.0 mg/kg/injection, schedule: Q01DX009 (ip), vehicle: saline with Tween-80 110 % of control | dose: 25.0 mg/kg/injection, schedule: Q01DX009 (oral), vehicle: saline with Tween-80 100 % of control | [1] 112 % of control | dose: 50.0 mg/kg/injection, schedule: Q01DX009 (oral), vehicle: saline with Tween-80 92 % of control | [2] 100 % of control | dose: 100.0 mg/kg/injection, schedule: Q01DX009 (oral), vehicle: saline with Tween-80 100 % of control | [3] 98 % of control | dose: 200.0 mg/kg/injection, schedule: Q01DX009 (oral), vehicle: saline with Tween-80 98 % of control | dose: 400.0 mg/kg/injection, schedule: Q01DX009 (ip), vehicle: saline with Tween-80 115 % of control | dose: 400.0 mg/kg/injection, schedule: Q01DX009 (oral), vehicle: saline with Tween-80 107 % of control | dose: 800.0 mg/kg/injection, schedule: Q01DX009 (oral), vehicle: saline with Tween-80 111 % of control

COC(=O)/C=C(\C)Nc1ccc(C(C)=O)cc1
inactive: dose: 100.0 mg/kg/injection, schedule: Q04DX003 (ip), vehicle: acetone 96 % of control | dose: 200.0 mg/kg/injection, schedule: Q04DX003 (ip), vehicle: acetone 94 % of control | dose: 400.0 mg/kg/injection, schedule: Q04DX003 (ip), vehicle: acetone 94 % of control

Cc1cnc2c(=N)n(C(=O)C(F)(F)F)n(C)c2n1
inactive: [4] 104 % of control | [5] 94 % of control | [6] 102 % of control | [7] 110 % of control | [8] 95 % of control

O=C(Nc1ccc(Cl)c(Cl)c1)Nc1ccc(Cl)c(Cl)c1
inactive: [9] 100 % of control | [10] 90 % of control | [11] 86 % of control

COc1cccc(NC(=S)NN(C)C)c1
inactive: [9] 94 % of control | [10] 122 % of control | [11] 112 % of control

Cc1c([N+](=O)[O-])oc2ccc(Cl)cc12
inactive: dose: 50.0 mg/kg/injection, schedule: Q04DX002 (ip), vehicle: Klucel (hydroxypropylcellulose) (HPC) 93 % of control | [4] 100 % of control | [9] 87 % of control | [6] 91 % of control | [10] 93 % of control | [12] 95 % of control

O=[N+]([O-])c1ccc(N/N=C(/Cl)c2ccccc2)cc1
inactive: dose: 50.0 mg/kg/injection, schedule: Q04DX003 (ip), vehicle: saline 101 % of control | [5] 98 % of control | [7] 96 % of control

O=C1CCCC(c2ccccc2)O1 (stereo unspecified)
inactive: [9] 108 % of control | [10] 101 % of control | [11] 101 % of control

NCC1CC2CCC1C2 (stereo unspecified)
inactive: dose: 100.0 mg/kg/injection, schedule: Q01DX009 (ip), vehicle: saline 90 % of control | [5] 101 % of control | dose: 200.0 mg/kg/injection, schedule: Q01DX009 (ip), vehicle: saline 90 % of control | [7] 103 % of control | [8] 103 % of control

Cc1ccc(CNc2ccc([N+](=O)[O-])cc2)cc1
inactive: [1] 92 % of control | [2] 103 % of control | [13] 93 % of control | [3] 97 % of control | [14] 101 % of control | [15] 88 % of control

CCCCCCCCCCCCSC(SCCCCCCCCCCCC)SCCCCCCCCCCCC
inactive: dose: 100.0 mg/kg/injection, schedule: Q01DX001 (ip), vehicle: other 95 % of control | dose: 200.0 mg/kg/injection, schedule: Q01DX001 (ip), vehicle: other 106 % of control | dose: 400.0 mg/kg/injection, schedule: Q01DX001 (ip), vehicle: other 95 % of control

C#CC1(OC(C)=O)CCCCC1
inactive: dose: 100.0 mg/kg/injection, schedule: Q01DX001 (ip), vehicle: saline 102 % of control | [13] 105 % of control | dose: 200.0 mg/kg/injection, schedule: Q01DX001 (ip), vehicle: saline 95 % of control | [14] 98 % of control | dose: 400.0 mg/kg/injection, schedule: Q01DX001 (ip), vehicle: saline 100 % of control | [15] 93 % of control

CCOC(=O)NC(=S)[S][Sb]([S]C(=S)NC(=O)OCC)[S]C(=S)Nc1ccc(S(=O)(=O)Nc2ccc(N=Nc3ccccc3)cc2)cc1
inactive: dose: 100.0 mg/kg/injection, schedule: Q01DX001 (ip), vehicle: steriod suspending solution 103 % of control | dose: 400.0 mg/kg/injection, schedule: Q01DX001 (ip), vehicle: steriod suspending solution 106 % of control

CCCC(C(N)=O)N(CCO)CCO (stereo unspecified)
inactive: dose: 100.0 mg/kg/injection, schedule: Q04DX002 (ip), vehicle: saline 90 % of control | dose: 200.0 mg/kg/injection, schedule: Q04DX002 (ip), vehicle: saline 90 % of control | dose: 400.0 mg/kg/injection, schedule: Q04DX002 (ip), vehicle: saline 90 % of control

CSc1ccccc1C=O
inactive: [4] 114 % of control | [16] 94 % of control | [6] 105 % of control | [17] 95 % of control | [12] 106 % of control | dose: 400.0 mg/kg/injection, schedule: Q04DX003 (ip), vehicle: Klucel (hydroxypropylcellulose) (HPC) 95 % of control

O=C(O)/C(Br)=C/C(=O)c1ccccc1
inactive: dose: 75.0 mg/kg/injection, schedule: Q01DX001 (ip), vehicle: steriod suspending solution 106 % of control | dose: 300.0 mg/kg/injection, schedule: Q01DX001 (ip), vehicle: steriod suspending solution 109 % of control

C[n+]1ccc(/C=C/c2ccnc3c(O)cccc23)c2ccccc21
inactive: dose: 15.0 mg/kg/injection, schedule: Q01DX001 (ip), vehicle: saline 112 % of control

CCCCn1nnc2ccc([N+](=O)[O-])cc2c1=O
inactive: [4] 92 % of control | [6] 87 % of control

CCOC(=O)C(CCC#N)(CCC#N)C(C)=O
inactive: [16] 105 % of control | [17] 94 % of control

CN(CCO)C1CCCCCCC1
inactive: dose: 100.0 mg/kg/injection, schedule: Q01DX001 (ip), vehicle: acetone 100 % of control

O=C1Cc2ccccc2C(C(=O)O)O1 (stereo unspecified)
inactive: dose: 75.0 mg/kg/injection, schedule: Q01DX001 (ip), vehicle: saline 107 % of control | dose: 150.0 mg/kg/injection, schedule: Q01DX001 (ip), vehicle: saline 101 % of control | dose: 300.0 mg/kg/injection, schedule: Q01DX001 (ip), vehicle: saline 107 % of control

CC1=C(CCCO)/C(=N/Nc2ccc([N+](=O)[O-])cc2[N+](=O)[O-])CCC1
inactive: dose: 25.0 mg/kg/injection, schedule: Q04DX002 (ip), vehicle: saline with Tween-80 97 % of control | dose: 100.0 mg/kg/injection, schedule: Q01DX001 (ip), vehicle: saline with Tween-80 105 % of control | dose: 200.0 mg/kg/injection, schedule: Q01DX001 (ip), vehicle: saline with Tween-80 87 % of control | dose: 400.0 mg/kg/injection, schedule: Q01DX001 (ip), vehicle: saline with Tween-80 92 % of control

Cc1ccc(S(=O)(=O)NC(C(=O)O)C(C)C)cc1 (stereo unspecified)
inactive: [13] 102 % of control | [14] 100 % of control | [15] 102 % of control
